# Experimental data reported in patent US20260373165A1, “PHARMACEUTICAL COMBINATIONS AND COMPOSITIONS, AND METHODS OF USE THEREOF” (SHENZHEN HIGHTIDE BIOPHARMACEUTICAL LTD., priority 2022, published 2026).
# Assays:
# Assay type in all cases: in vivo, mouse (C57BL/6J male, 60% HFD DIO)
# [1] = Example 2: body weight and body weight change rate, combined administration of HTD1801 and dapagliflozin or empagliflozin in DIO obesity model; conditions: HTD1801 250 mpk, dapagliflozin 10 mpk, empagliflozin 15 mpk p.o. QD, semaglutide 10 nmol/kg s.c. Q3D
# From the text: (§1) After 5-6-week-old C57BL/6J male mice were acclimatized for 1 week, the weight of each mouse was weighed, and the mice were randomly divided into a control group and a model group by taking the weight as a main index, where 12 mice in the control group were fed with common feed (CD), and the mice in the remaining model group were fed with 60% high-fat feed (60% HFD) for 10-12 weeks to construct a DIO obesity model, with the average body weight being not less than 40 g. The mice fed with 60% HFD were grabbed and acclimatized with a solvent for 3 days, where the acclimatization with a solvent was performed by oral gavage of 0.5% CMC-Na, once daily.
# (§2) The food intake, the body weight, the body fat ratio, and the insulin level of the mice were respectively measured, followed by fasting blood glucose level, and the mice were randomly grouped according to Table 12 by taking the body weight as an index, and the remaining ungrouped mice were euthanized. After grouping, each group of mice was administered according to Table 12, the day of administration was defined as DO, and the administration volume of each drug was determined based on the results obtained by the calculation of 5 μL/g× mouse body weight (g).
# (§3) For the combined administration group, the administration sequence and the administration time were kept consistent at each administration. The mice were continuously fed with high-fat feed during the administration period until the administration was finished. During administration, 1 food intake was measured per week (difference in feed weights at an interval of 24 h was measured); each group of mice was weighed once daily; blood was collected from the tail tip on day 16 and day 30, respectively, so as to measure fasting blood glucose levels once (blood was collected after fasting from 9:00 am to 3:[…]); on day 24 of administration (D23), the body fat ratio and the lean mass of each group of mice were measured by MRI (the measurement period was kept consistent with that before grouping); after 25 days of administration intervention (day 24), each group of mice was fasted for 6 h and subjected to OGTT (0 min, 15 min, 30 min, 60 min, 90 min, 120 min) to detect their blood glucose levels; after 29 days of administration intervention (day 28), each group of mice was fasted for 6 h and subjected to OGTT (0 min, 15 min, 30 min, 60 min, 90 min, 120 min), and meanwhile subjected to blood sampling via submaxillary vein (0 min, 15 min, 30 min, about 30 μL of blood sampled each time), and then the blood plasma was separated for detecting the insulin level by ELISA, where the separated blood plasma was more than 10 μL; the next day (D30) at the end of administration was set as the test endpoint, and the mice were fasted for 6 h in the morning and subjected to fasting blood glucose level measurement; subsequently, the mice were euthanized with CO2, blood was collected from the heart of each mouse for analysis, and each group of mice was dissected; the liver and subcutaneous, epididymal and mesenteric fat was collected, photographed and weighed, respectively.
# [2] = Example 2: body fat mass by MRI on day 23
# From the text: as §1, §2, §3
# The body weight, the body fat mass and the body fat ratio of each animal in groups G1 to G8 were measured on day 23 and averaged for each group, and the results are shown in Table 15 below, and FIGS. 21 and 22.
# [3] = Example 2: lean mass by MRI on day 23
# From the text: as §1, §2, §3
# The body weight, the lean mass and the lean ratio of each animal in groups G1 to G8 were measured on day 23 and averaged for each group, and the results are shown in Table 16 below, and FIGS. 23 and 24.
# [4] = mean, day 23, HTD1801 250 mpk, dapagliflozin 10 mpk, empagliflozin 15 mpk p.o. QD
compound,measurement,setting,value
"COc1ccc2cc3[n+](cc2c1OC)CCc1cc2c(cc1-3)OCO2.C[C@H](CCC(=O)[O-])[C@H]1CC[C@H]2[C@@H]3[C@@H](O)C[C@@H]4C[C@H](O)CC[C@]4(C)[C@H]3CC[C@]12C [HTD1801, berberine ursodeoxycholate]",body weight change / weight loss effect (in words),[1],"close to that of the semaglutide group, with a uniform and sustained decrease throughout the administration period"
same,Body weight (mean),[1]; day 0 (baseline),45.3 g
same,Body weight change rate,[1]; day 0 (baseline),0.0%
same,Body weight (mean),[1]; day 1,44.5 g
same,Body weight change rate,[1]; day 1,−1.6%
same,Body weight (mean),[1]; day 2,44.1 g
same,Body weight change rate,[1]; day 2,−2.5%
same,Body weight (mean),[1]; day 3,44.1 g
same,Body weight change rate,[1]; day 3,−2.5%
same,Body weight (mean),[1]; day 4,43.6 g
same,Body weight change rate,[1]; day 4,−3.7%
same,Body weight (mean),[1]; day 5,43.1 g
same,Body weight change rate,[1]; day 5,−4.9%
same,Body weight (mean),[1]; day 6,42.7 g
same,Body weight change rate,[1]; day 6,−5.7%
same,Body weight (mean),[1]; day 7,42.7 g
same,Body weight change rate,[1]; day 7,−5.7%
same,Body weight (mean),[1]; day 8,42.5 g
same,Body weight change rate,[1]; day 8,−6.2%
same,Body weight (mean),[1]; day 9,41.9 g
same,Body weight change rate,[1]; day 9,−7.5%
same,Body weight (mean),[1]; day 10,41.9 g
same,Body weight change rate,[1]; day 10,−7.4%
same,Body weight (mean),[1]; day 11,41.7 g
same,Body weight change rate,[1]; day 11,−7.9%
same,Body weight (mean),[1]; day 12,41.3 g
same,Body weight change rate,[1]; day 12,−8.7%
same,Body weight (mean),[1]; day 13,40.3 g
same,Body weight change rate,[1]; day 13,−10.9%
same,Body weight (mean),[1]; day 14,40.5 g
same,Body weight change rate,[1]; day 14,−10.7%
same,Body weight (mean),[1]; day 15,40.3 g
same,Body weight change rate,[1]; day 15,−11.1%
same,Body weight (mean),[1]; day 16,40.2 g
same,Body weight change rate,[1]; day 16,−11.2%
same,Body weight (mean),[1]; day 17,39.9 g
same,Body weight change rate,[1]; day 17,−11.8%
same,Body weight (mean),[1]; day 18,39.7 g
same,Body weight change rate,[1]; day 18,−12.3%
same,Body weight (mean),[1]; day 19,39.4 g
same,Body weight change rate,[1]; day 19,−12.8%
same,Body weight (mean),[1]; day 20,39.3 g
same,Body weight change rate,[1]; day 20,−13.2%
same,Body weight (mean),[1]; day 21,39.1 g
same,Body weight change rate,[1]; day 21,−13.5%
same,Body weight (mean),[1]; day 22,39.2 g
same,Body weight change rate,[1]; day 22,−13.4%
same,Body weight (mean),[1]; day 23,38.9 g
same,Body weight change rate,[1]; day 23,−14.0%
same,Body weight (mean),[1]; day 24,38.2 g
same,Body weight change rate,[1]; day 24,−15.6%
same,Body weight (mean),[1]; day 25,38.4 g
same,Body weight change rate,[1]; day 25,−15.1%
same,Body weight (mean),[1]; day 26,38.6 g
same,Body weight change rate,[1]; day 26,−14.6%
same,Body weight (mean),[1]; day 27,38.7 g
same,Body weight change rate,[1]; day 27,−14.5%
same,Body weight (mean),[1]; day 28,38.4 g
same,Body weight change rate,[1]; day 28,−15.1%
same,Body weight (mean),[1]; day 29,37.4 g
same,Body weight change rate,[1]; day 29,−17.4%
same,body fat mass and body fat ratio (in words),"[2]; day 23, relative to control group G2",significantly decreased
same,Body weight,"[2]; mean, day 23 (Table 15), HTD1801 250 mpk, dapagliflozin 10 mpk, empagliflozin 15 mpk p.o. QD",38.9 g
same,Body fat ratio,[2]; [4],44.8%
same,Fat (body fat mass),[2]; [4],17.5 g
same,lean ratio (in words),"[3]; day 23, relative to model control group G2",slightly increased
same,Body weight,"[3]; mean, day 23 (Table 16), HTD1801 250 mpk, dapagliflozin 10 mpk, empagliflozin 15 mpk p.o. QD",38.9 g
same,Lean (lean mass),[3]; [4],5.1 g
same,Lean ratio,[3]; [4],13.0%
